Assay results taken from publication PMC8219695 (Nature Communications, 2021).
Several values for one entry are separate records, joined by “and”; a condition that tells them apart may be missing. Equal values may be shown once.

Legend:
CD1 mice = assay: Tail-flick antinociception in CD1 mice; format: in vivo, mouse; details: sc; for Tail flick (%MPE), average / Tail flick latency in secs, Av / Tail flick latency in secs, av: average of 8 animals; for Tail flick (%MPE) / Tail flick latency: individual animals
mMOR [1] = target: T1, mMOR (Mus musculus, UniProt P42866); assay: BRET-based Nb33 recruitment assay at mMOR; format: cell-based; details: single replicates, source data Fig 7a
T1 construct: signal peptide (heterologous, not specified) (N); expressed in transfected cells; pcDNA3.1(+) construct made in house
T1 sequence (P42866 whole entry): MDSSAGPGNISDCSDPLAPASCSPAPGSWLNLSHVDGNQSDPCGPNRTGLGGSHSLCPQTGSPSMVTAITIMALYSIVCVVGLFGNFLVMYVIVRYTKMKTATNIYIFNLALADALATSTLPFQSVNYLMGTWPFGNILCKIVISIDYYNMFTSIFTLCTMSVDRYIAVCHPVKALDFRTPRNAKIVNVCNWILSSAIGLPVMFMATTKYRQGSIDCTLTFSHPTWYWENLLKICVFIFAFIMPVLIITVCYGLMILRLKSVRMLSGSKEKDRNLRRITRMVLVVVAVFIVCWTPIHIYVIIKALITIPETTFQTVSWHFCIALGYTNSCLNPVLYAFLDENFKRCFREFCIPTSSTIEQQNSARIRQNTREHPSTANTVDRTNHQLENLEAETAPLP

mMOR [2] = target: T1, mMOR; assay: CAMYEL BRET cAMP agonist assay at mMOR; format: cell-based; details: mMOR, single replicates, source data Fig 6b
hMOR = target: T2, hMOR (Homo sapiens, UniProt P35372); assay: CAMYEL BRET cAMP agonist assay at hMOR; format: cell-based; details: hMOR, single replicates, source data Fig 6c
T2 construct: expressed in transfected cells; plasmid a gift from Dr. Nevin Lambert
T2 sequence (P35372 whole entry): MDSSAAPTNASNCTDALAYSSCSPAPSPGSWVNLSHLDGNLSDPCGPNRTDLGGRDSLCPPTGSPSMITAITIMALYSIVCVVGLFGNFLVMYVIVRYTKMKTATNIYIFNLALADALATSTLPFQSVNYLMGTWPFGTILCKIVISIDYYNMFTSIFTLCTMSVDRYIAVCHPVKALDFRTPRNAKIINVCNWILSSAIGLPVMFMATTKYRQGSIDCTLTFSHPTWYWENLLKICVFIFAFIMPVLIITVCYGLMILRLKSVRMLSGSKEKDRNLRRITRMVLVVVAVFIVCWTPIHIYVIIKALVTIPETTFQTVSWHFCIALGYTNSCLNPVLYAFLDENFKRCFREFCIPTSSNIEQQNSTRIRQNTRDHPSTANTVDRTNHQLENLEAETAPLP

[3] = Log[drug] (M) -13, cAMP inhibition as % of DAMGO

CC[C@@H]1CN2CC[C@@]3(O)C(=Nc4cc(Cl)cc(OC)c43)[C@@H]2C[C@@H]1/C(=C\OC)C(=O)OC [11-Cl-7OH]
%MPE (CD1 mice; 5 mg/kg, 15 min): 2.8 %MPE | Tail flick (%MPE), average (CD1 mice; 5 mg/kg, 15 min): 2.3 %MPE | Tail flick latency in secs, Av (CD1 mice; 5 mg/kg, 15 min): 3.3 s | Tail flick (%MPE) (CD1 mice; 5 mg/kg, 15 min): -5.1 %MPE and -18.5 %MPE and 0.7 %MPE and 1.6 %MPE (2×) and 16.4 %MPE and 17.5 %MPE and 4.0 %MPE | Tail flick latency (CD1 mice; 5 mg/kg, 15 min): 2.75 secs and 2.65 secs and 2.95 secs and 3.7 secs (2×) and 4.4 secs and 3.4 secs and 2.8 secs | %MPE (CD1 mice; 5 mg/kg, 30 min): 1.6 %MPE | Tail flick (%MPE), average (CD1 mice; 5 mg/kg, 30 min): 1.3 %MPE | Tail flick latency in secs, Av (CD1 mice; 5 mg/kg, 30 min): 3.2 s | Tail flick (%MPE) (CD1 mice; 5 mg/kg, 30 min): -2.2 %MPE and -3.2 %MPE and 0.7 %MPE and -10.9 %MPE and 7.5 %MPE and 4.7 %MPE and 10.0 %MPE and 4.0 %MPE | Tail flick latency (CD1 mice; 5 mg/kg, 30 min): 2.95 secs (2×) and 3.6 secs and 2.9 secs and 3.8 secs and 3.9 secs and 2.8 secs (2×) | %MPE (CD1 mice; 5 mg/kg, 60 min): 3.3 %MPE | Tail flick latency in secs, Av (CD1 mice; 5 mg/kg, 60 min): 3.3 s | Tail flick (%MPE) (CD1 mice; 5 mg/kg, 60 min): -2.9 %MPE and -16.1 %MPE and 7.0 %MPE and -1.6 %MPE and 1.5 %MPE and -10.9 %MPE and 21.3 %MPE and 20.0 %MPE | Tail flick latency (CD1 mice; 5 mg/kg, 60 min): 2.9 secs (2×) and 2.8 secs and 3.4 secs (2×) and 3.5 secs and 3.7 secs and 4 secs | %MPE (CD1 mice; 25 mg/kg, 15 min): 2.83 %MPE | Tail flick (%MPE), average (CD1 mice; 25 mg/kg, 15 min): 2.6 %MPE | Tail flick latency in secs, av (CD1 mice; 25 mg/kg, 15 min): 2.9 s | Tail flick (%MPE) (CD1 mice; 25 mg/kg, 15 min): 12.5 %MPE and -0.8 %MPE and 0.7 %MPE and -0.7 %MPE (2×) and 10.4 %MPE and -3.5 %MPE and 2.7 %MPE | Tail flick latency (CD1 mice; 25 mg/kg, 15 min): 3.0 secs (2×) and 3.5 secs and 2.8 secs and 2.6 secs (2×) and 3.1 secs and 2.9 secs | %MPE (CD1 mice; 25 mg/kg, 30 min): 5.91 %MPE | Tail flick (%MPE), average (CD1 mice; 25 mg/kg, 30 min): 5.5 %MPE | Tail flick latency in secs, av (CD1 mice; 25 mg/kg, 30 min): 3.1 s | Tail flick (%MPE) (CD1 mice; 25 mg/kg, 30 min): 12.5 %MPE and -11.5 %MPE and 9.0 %MPE and 3.6 %MPE and 10.1 %MPE and 10.4 %MPE and 3.5 %MPE and 6.8 %MPE | Tail flick latency (CD1 mice; 25 mg/kg, 30 min): 3.0 secs and 2.8 secs and 3.4 secs (2×) and 3.3 secs and 3.1 secs (2×) and 3.2 secs | %MPE (CD1 mice; 25 mg/kg, 60 min): 6.34 %MPE | Tail flick (%MPE), average (CD1 mice; 25 mg/kg, 60 min): 6.0 %MPE | Tail flick latency in secs, av (CD1 mice; 25 mg/kg, 60 min): 3.2 s | Tail flick (%MPE) (CD1 mice; 25 mg/kg, 60 min): 7.5 %MPE and -7.7 %MPE and 10.3 %MPE and 2.1 %MPE and 12.2 %MPE and 22.1 %MPE and 0.7 %MPE (2×) | Tail flick latency (CD1 mice; 25 mg/kg, 60 min): 2.6 secs and 3.0 secs and 3.5 secs (2×) and 3.2 secs and 4.0 secs and 2.9 secs and 2.8 secs | %MPE (CD1 mice; 25 mg/kg, 150 min): 2.66 %MPE | Tail flick (%MPE), average (CD1 mice; 25 mg/kg, 150 min): -0.273 %MPE | Tail flick latency in secs, av (CD1 mice; 25 mg/kg, 150 min): 2.9 s | Tail flick (%MPE) (CD1 mice; 25 mg/kg, 150 min): -10.0 %MPE and 3.1 %MPE and 2.8 %MPE and -5.0 %MPE and 4.7 %MPE and 2.9 %MPE and -0.7 %MPE and 0.0 %MPE | Tail flick latency (CD1 mice; 25 mg/kg, 150 min): 2.3 secs and 3.7 secs and 3.0 secs and 2.6 secs and 2.9 secs (2×) and 3.3 secs and 2.5 secs

C[C@@H](NC(=O)[C@@H](N)Cc1ccc(O)cc1)C(=O)NCC(=O)N(C)[C@@H](Cc1ccccc1)C(=O)NCCO [DAMGO, [D-Ala^2, N-Me-Phe^4, Gly^5-ol]-enkephalin, reference compound]
Nb33 BRET assay at mMOR, response (mMOR [1]; Log[drug] (M) -4): 116.548 and 99.0991 and 123.097 and 102.778 and 111.876 and 86.5818 and 91.4453 and 105.421 and 94.7199 and 96.8839 and 110.228 and 105.758 and 96.6672 and 105.453 and 97.0797 and 106.37 and 115.431 and 97.3489 and 102.87 and 112.822 and 97.3627 | Nb33 BRET assay at mMOR, response (mMOR [1]; Log[drug] (M) -5): 78.3004 and 105.49 and 93.3001 and 92.3549 and 96.5229 and 94.3135 and 107.346 and 108.338 and 93.8039 and 95.4962 and 95.2898 and 96.1807 and 98.423 and 95.5858 and 88.3338 and 114.596 and 90.0997 and 91.8485 and 91.211 and 101.524 and 97.9528 | Nb33 BRET assay at mMOR, response (mMOR [1]; Log[drug] (M) -8): 25.6157 and -0.9817 and 2.276 and 16.2956 and 7.2069 and 3.257 and 8.405 and 5.376 and 16.5535 and 18.8366 and 6.195 and 12.7572 and 5.664 and 5.763 and 13.2066 and 17.6481 | Nb33 BRET assay at mMOR, response (mMOR [1]; Log[drug] (M) -9): 2.545 and 18.2179 and 1.398 and 13.71 and 1.7362 and 12.589 and -5.813 and 7.089 and -10.8919 and 4.229 and 0.1289 and 0.7333 and 3.575 and -0.9155 and 34.3413 and 6.961 and -1.352 and 3.399 and 3.853 and 3.842 and 2.552 | Nb33 BRET assay at mMOR, response (mMOR [1]; Log[drug] (M) -10): 3.45 and -1.0779 and -15.1434 and 16.2214 and 5.631 and -0.462 and -5.169 and -3.138 and 4.714 and -1.576 and 1.587 and 11.4832 and -0.3739 and -1.213 and -14.9335 and -0.4874 and 0.03891 and 0.4485 and -4.142 and 2.431 and 1.7112 | cAMP % (mMOR [2]; Log[drug] (M) -5): 102.015% and 97.5784% and 104.579% and 96.6295% and 98.3687% and 104.58% and 107.049% and 113.123% and 108.981% | cAMP % (mMOR [2]; Log[drug] (M) -6): 105.759% and 89.6935% and 102.343% and 97.3213% and 106.448% and 102.195% and 98.7916% and 100.678% and 92.5396% | cAMP % (mMOR [2]; Log[drug] (M) -7): 94.7459% and 89.7557% and 84.4404% and 103.092% and 95.8909% and 105.68% and 91.1195% and 91.3937% and 91.5037% | cAMP % (mMOR [2]; Log[drug] (M) -8): 54.4279% and 44.3207% and 58.3553% and 86.2498% and 84.9633% and 88.7212% and 82.7217% and 81.9867% and 95.6687% | cAMP % (mMOR [2]; Log[drug] (M) -9): 14.6461% and 18.37% and 18.8483% and 47.9% and 59.4105% and 56.9807% and 36.8388% and 43.8092% and 46.1925% | cAMP % (mMOR [2]; Log[drug] (M) -10): 1.728% and 0.08907% and -1.817% and 16.1543% and 6.811% and 19.2753% and 3.3167% and 1.639% and 10.5208% | cAMP % (mMOR [2]; Log[drug] (M) -11): 6.094% and 2.441% and 8.528% and 5.436% and 3.7044% and 1.349% and 1.812% and -1.084% and -0.7282% | cAMP % (mMOR [2]; [3]): -0.3434% and 15.5805% and 1.417% and -1.196% and 0.717% and 0.4788% and 1.6944% and 5.324% and 4.584% | cAMP % (hMOR; Log[drug] (M) -5): 103.124% and 109.477% and 102.684% and 110.427% and 108.861% and 108.591% and 112.306% and 111.09% | cAMP % (hMOR; Log[drug] (M) -6): 98.2575% and 92.1607% and 109.669% and 106.978% and 96.9047% and 104.556% and 112.319% and 93.9893% and 98.3933% | cAMP % (hMOR; Log[drug] (M) -7): 84.826% and 103.003% and 98.5438% and 92.203% and 94.9009% and 88.7302% and 91.8158% and 88.9226% and 95.649% | cAMP % (hMOR; Log[drug] (M) -8): 90.1183% and 95.617% and 94.9621% and 80.7074% and 80.5991% and 79.7704% and 101.871% | cAMP % (hMOR; Log[drug] (M) -9): 83.2929% and 84.9251% and 85.9398% and 87.1639% and 70.6227% and 86.8862% and 70.8595% | cAMP % (hMOR; Log[drug] (M) -10): 23.9872% and 31.9271% and 31.1042% and 26.2749% and 20.3118% and 16.9632% and 5.794% and 13.2278% and 15.6275% | cAMP % (hMOR; Log[drug] (M) -11): 7.017% and -4.712% and 3.0598% and 13.9517% and -4.528% and 3.447% and 8.388% and -3.773% and -4.615% | cAMP % (hMOR; [3]): 1.163% and -6.717% and 5.554% and 6.145% and -10.7075% and 4.5627% and 2.101% and 2.953% and 0.8452%

CN1CC[C@]23c4c5ccc(O)c4O[C@H]2[C@@H](O)C=C[C@H]3[C@H]1C5 [Morphine, morphine, reference compound]
Tail flick (%MPE) (CD1 mice; Fig 9b, Morphine 10 mg/kg): 32.79 %MPE and 42.86 %MPE and 100.00 %MPE (6×) and 61.73 %MPE and 52.00 %MPE | Tail flick latency (CD1 mice; Fig 9b, Morphine 10 mg/kg): 5.9 and 6 and 10 (6×) and 6.9 and 6.4
